For twelve compounds, TGI results are on record in PubChem BioAssay (NCI).

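Results reflect a 48-hour exposure of cells in 96-well plates to compound at five concentrations. Definition used: TGI = concentration required for complete inhibition of growth.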 A value given as a limit tells only on which side of the number the result lay.

Test systems include K-562 leukemia; IGROV1 ovarian; RXF 393 renal; UACC-257 melanoma; A549 NSCLC; SN12C renal; SF-295 CNS; HL-60(TB) leukemia; HOP-62 NSCLC; DLD-1 colon; A498 renal; CCRF-CEM leukemia; 786-0 renal; SK-MEL-28 melanoma; COLO 205 colon; U251 CNS; OVCAR-4 ovarian; HS 578T breast; DU-145 prostate; BT-549 breast.
What all share (assay): inhibition of tumour cell growth, NCI panel, 48 h

Regarding `CC1(C)CC(=O)C2=C(C1)S/C(=C1/SC3=C(S1)C(=O)CC(C)(C)C3)S2`, the TGI with K-562 leukemia, with IGROV1 ovarian, with RXF 393 renal, in the experiment on UACC-257 melanoma, in the experiment with A549 NSCLC and in the experiment with SN12C renal was more than 251 µM each time. The TGI in the experiment on SF-295 CNS, in the experiment with HL-60(TB) leukemia, with HOP-62 NSCLC, with DLD-1 colon, in the experiment with A498 renal and in the experiment with CCRF-CEM leukemia was more than 251 µM each time. Also, the TGI in the experiment with 786-0 renal, in the experiment on SK-MEL-28 melanoma, with COLO 205 colon and in the experiment with U251 CNS was more than 251 µM in each case.

With `CC(C)OC(=O)C1=C(O)c2ccccc2S(=O)(=O)N1`, the TGI with K-562 leukemia, with IGROV1 ovarian, in the experiment with UACC-257 melanoma, in the experiment with A549 NSCLC, in the experiment on SN12C renal and with SF-295 CNS was more than 100 µM in each case. The TGI in the experiment with HOP-62 NSCLC, with OVCAR-4 ovarian, in the experiment with DLD-1 colon, in the experiment with A498 renal, in the experiment with CCRF-CEM leukemia and in the experiment with 786-0 renal was more than 100 µM in each case. The TGI in the experiment with SK-MEL-28 melanoma, in the experiment with COLO 205 colon and in the experiment on U251 CNS was more than 100 µM each time.

Regarding `Cc1ccc(S(=O)(=O)N/N=c2\c(C)c(C3=NS(=O)(=O)c4cc(S(N)(=O)=O)c(Cl)cc4N3)oc3c(Cl)cc(Cl)cc23)cc1`, the TGI in the experiment on K-562 leukemia, in the experiment with IGROV1 ovarian, in the experiment on RXF 393 renal, in the experiment with UACC-257 melanoma, with A549 NSCLC and in the experiment on SN12C renal was more than 100 µM in each case. The TGI in the experiment with SF-295 CNS, in the experiment on HL-60(TB) leukemia, with HOP-62 NSCLC, in the experiment on OVCAR-4 ovarian, with DLD-1 colon and with A498 renal was more than 100 µM throughout. Moreover, the TGI in the experiment with CCRF-CEM leukemia is more than 100 µM; in the experiment on 786-0 renal, more than 100 µM; in the experiment with SK-MEL-28 melanoma, more than 100 µM; in the experiment with COLO 205 colon, 47.8 µM; in the experiment with U251 CNS, 67.9 µM.

Regarding `COc1cc(-c2cc(=O)c3c(O)c(OC)c(OC)c(OC)c3o2)ccc1O`, the TGI with K-562 leukemia was more than 100 µM; in the experiment on IGROV1 ovarian, 37.2 µM; in the experiment with RXF 393 renal, 48 µM; in the experiment on UACC-257 melanoma, more than 100 µM; in the experiment with A549 NSCLC, 90.7 µM; with SN12C renal, 79 µM. Besides, the TGI with SF-295 CNS was 60.5 µM; with HL-60(TB) leukemia it was 61.6 µM; in the experiment with HOP-62 NSCLC it was 77.3 µM; in the experiment on DLD-1 colon, more than 100 µM; with A498 renal, 17.6 µM; in the experiment on CCRF-CEM leukemia, more than 100 µM. The TGI in the experiment on 786-0 renal, with SK-MEL-28 melanoma and with U251 CNS was more than 100 µM throughout.

Take `CC(Oc1ccc(OCC2CCCCC2)cc1)C(N)=O` (stereo not drawn): the TGI in the experiment with K-562 leukemia, in the experiment with UACC-257 melanoma, with A549 NSCLC, in the experiment on SN12C renal, with SF-295 CNS and in the experiment on HL-60(TB) leukemia was more than 100 µM each time. Besides, the TGI with OVCAR-4 ovarian, with DLD-1 colon, in the experiment with CCRF-CEM leukemia, in the experiment on 786-0 renal, with SK-MEL-28 melanoma and in the experiment with U251 CNS was more than 100 µM each time.

Turning to `CCCCCC(=O)Nc1nc[nH]c1C(N)=O`, the TGI in the experiment with K-562 leukemia, in the experiment on IGROV1 ovarian, in the experiment with RXF 393 renal, in the experiment on UACC-257 melanoma, in the experiment with A549 NSCLC and with SN12C renal was more than 100 µM each time. Also, the TGI in the experiment with SF-295 CNS, in the experiment with HL-60(TB) leukemia, in the experiment on HS 578T breast, with HOP-62 NSCLC, in the experiment on OVCAR-4 ovarian and in the experiment with DU-145 prostate was more than 100 µM in each case. Moreover, the TGI in the experiment on A498 renal, in the experiment with BT-549 breast, with CCRF-CEM leukemia, in the experiment on 786-0 renal, in the experiment with SK-MEL-28 melanoma and with COLO 205 colon was more than 100 µM throughout. The compound also yielded a TGI with U251 CNS of more than 100 µM.

For the compound `Fc1ccc(OCc2nc3cc(C(F)(F)F)ccc3nc2-c2ccccc2)cc1`, the TGI with K-562 leukemia is more than 59 µM; with IGROV1 ovarian, more than 100 µM; in the experiment on RXF 393 renal it was more than 100 µM; with UACC-257 melanoma, more than 100 µM; in the experiment on A549 NSCLC, more than 100 µM; with SN12C renal, more than 100 µM. Besides, the TGI in the experiment on SF-295 CNS is more than 100 µM; in the experiment with HL-60(TB) leukemia, more than 89.1 µM; in the experiment on HS 578T breast it was more than 100 µM; with HOP-62 NSCLC it was more than 100 µM; in the experiment with OVCAR-4 ovarian it was more than 100 µM; with DU-145 prostate, more than 100 µM. The TGI in the experiment with A498 renal was more than 100 µM; with BT-549 breast, more than 100 µM; with CCRF-CEM leukemia, more than 93.1 µM; with 786-0 renal it was more than 100 µM; in the experiment on SK-MEL-28 melanoma, more than 100 µM; in the experiment with COLO 205 colon, more than 100 µM. The TGI with U251 CNS is more than 100 µM.

Turning to `CC(=O)OC[C@@H]1[C@H]2CC[C@]3(C)[C@@H](OC(C)=O)CC[C@H]3[C@@H]2CC[C@H]1C1(C)SCCS1`, the TGI with K-562 leukemia, with IGROV1 ovarian, with RXF 393 renal, with UACC-257 melanoma, in the experiment with A549 NSCLC and in the experiment on SN12C renal was more than 25 µM in each case. Besides, the TGI with SF-295 CNS, with HL-60(TB) leukemia, in the experiment with HS 578T breast, in the experiment with HOP-62 NSCLC, in the experiment with OVCAR-4 ovarian and in the experiment with DU-145 prostate was more than 25 µM each time. The TGI in the experiment with A498 renal, in the experiment on BT-549 breast, in the experiment with CCRF-CEM leukemia, in the experiment on 786-0 renal, in the experiment on SK-MEL-28 melanoma and in the experiment on COLO 205 colon was more than 25 µM in each case. The TGI in the experiment with U251 CNS is more than 25 µM.

With `Nc1ccc(N=Nc2ccc(-c3ccc(O)cc3)cc2)c2ccc(S(=O)(=O)O)cc12`, the TGI in the experiment with K-562 leukemia, in the experiment with IGROV1 ovarian, in the experiment on RXF 393 renal, in the experiment with UACC-257 melanoma, with A549 NSCLC and with SN12C renal was more than 100 µM in each case. Also, the TGI in the experiment on SF-295 CNS, with HL-60(TB) leukemia, with HS 578T breast, in the experiment with HOP-62 NSCLC, in the experiment with OVCAR-4 ovarian and in the experiment on DU-145 prostate was more than 100 µM each time. For the same compound, the TGI in the experiment on A498 renal, in the experiment with BT-549 breast, with CCRF-CEM leukemia, in the experiment on 786-0 renal, in the experiment on SK-MEL-28 melanoma and with COLO 205 colon was more than 100 µM each time. In addition, the TGI with U251 CNS was more than 100 µM.

On to `CN1C(=O)N/C(=C\c2ccc(S(=O)(=O)N/N=C\C(O)C(O)C(O)CO)cc2)C1=O` (stereo not drawn), for which the TGI in the experiment with K-562 leukemia, in the experiment with IGROV1 ovarian, in the experiment on RXF 393 renal, with UACC-257 melanoma, with A549 NSCLC and in the experiment on SN12C renal was more than 100 µM in each case. Further, the TGI with SF-295 CNS, with HL-60(TB) leukemia, in the experiment with HS 578T breast, in the experiment with HOP-62 NSCLC, in the experiment on OVCAR-4 ovarian and with DU-145 prostate was more than 100 µM throughout. Moreover, the TGI with A498 renal, in the experiment on BT-549 breast, in the experiment on CCRF-CEM leukemia, in the experiment on 786-0 renal, with SK-MEL-28 melanoma and in the experiment with COLO 205 colon was more than 100 µM each time. This compound also showed a TGI in the experiment on U251 CNS of more than 100 µM.

On to `Nc1c(-c2nc3ccccc3o2)sc(=S)n1-c1ccc(Cl)cc1`, for which the TGI with K-562 leukemia is more than 100 µM; in the experiment with IGROV1 ovarian, 46.3 µM; in the experiment with RXF 393 renal, 66.8 µM; in the experiment on UACC-257 melanoma it was 95.6 µM; with A549 NSCLC it was 39.2 µM; in the experiment with SN12C renal, more than 100 µM. The TGI in the experiment with SF-295 CNS is 27.3 µM; in the experiment on HL-60(TB) leukemia it was more than 100 µM; with HS 578T breast, 46.4 µM; with HOP-62 NSCLC, 15.8 µM; with OVCAR-4 ovarian, 31.6 µM; in the experiment on DU-145 prostate it was 32.9 µM. For the same compound, the TGI is 99.7 µM in the experiment with A498 renal; 76 µM with BT-549 breast; more than 100 µM with CCRF-CEM leukemia; 22.9 µM with 786-0 renal; 37.7 µM in the experiment with SK-MEL-28 melanoma; more than 100 µM with COLO 205 colon. Besides, the TGI in the experiment with U251 CNS was determined as 37.5 µM.

Take `NCCCCN(CCCN)C(=O)c1ccccc1`: the TGI in the experiment on K-562 leukemia, in the experiment on IGROV1 ovarian, in the experiment on RXF 393 renal, in the experiment with UACC-257 melanoma, in the experiment with A549 NSCLC and with SN12C renal was more than 100 µM in each case. The TGI with SF-295 CNS, with HL-60(TB) leukemia, in the experiment on HS 578T breast, with HOP-62 NSCLC, in the experiment on OVCAR-4 ovarian and in the experiment with DU-145 prostate was more than 100 µM throughout. Moreover, the TGI in the experiment with A498 renal, with BT-549 breast, in the experiment on CCRF-CEM leukemia, in the experiment with 786-0 renal, in the experiment with SK-MEL-28 melanoma and in the experiment on COLO 205 colon was more than 100 µM each time. In the experiment on U251 CNS, this compound yielded a TGI of more than 100 µM.
